Measurements published in patent US8637484B2, “Modulation of growth hormone receptor expression and insulin-like growth factor expression” (Antisense Therapeutic Limited, priority 2003, dated 2014).
In the oligonucleotide strings, read from the 5' end, every base follows the letter of its sugar. An asterisk marks phosphorothioate; unmarked linkages are phosphodiester. Other units and linkages are bracketed, terminal groups are in braces. A string of capitals states the bases alone. e = 2'-O-(2-methoxyethyl) (MOE); [5mC] = 5-methylcytosine; d = 2'-deoxy (DNA)

How the values were obtained:
[1] = test system: serum insulin-like growth factor-I; experiment: Serum IGF-I by radioimmunoassay, 1 week pilot study in Balb/C(a) mice; type: in vivo, mouse; conditions: for % IGF-I reduction: 30 mg/kg once every 2 days, serum IGF-I at day 7 compared to saline control at day 7
Description: Forty male Balb/C(a) mice weighing 9 to 10 g were placed into cages, 4 animals per cage, and allowed to assimilate into their environment with new littermates ˜1 week prior (Day −7) to the commencement of 1 week study. Mice of this age would be at their maximum growth rate. Their body weights were measured and recorded every second day during this period. When mice weighed 11 g (day −2), a blood sample was collected under anesthesia as described below, and a serum IGF-I assay was performed to determine pre-treatment values and to aid in the assigning of mice to treatment groups in order to reduce animal variability. To obtain the blood sample, the animals were anaesthetized with pentobarbital (50 mg/kg i.p.) and non-fasting blood samples collected exactly 5 minutes later from the retrobulbar plexus through heparinized capillary tubes under light ether anesthesia. The 40 animals were placed into five groups with each group having a similar weight average and similar IGF-I average concentration for the trial.
Animals (n=8/group) were designated to the following five treatment groups:
Saline, antisense, mismatch control and octreotide samples were prepared, and coded for blinding. Animals were given a subcutaneous dose of saline every second day, and mismatch control or antisense with administration on days 0, 2, 4, 6. Animals were given twice daily doses of 25 μg octreotide. Animals were housed 4 per cage, for the duration of one week. They had access to a pre-determined quantity of standard mouse food and water at all times throughout the experiment. They were housed in a quiet, temperature- and humidity-maintained environment for the entirety of the study. At day 0 and before treatment on each day or second day, the animals had their body weight and food intake measured, enabling the correct dose of agent to be administered. The animals were monitored closely for any changes in fur, skin, eye, locomotion or other changes in behavior. No problems were observed. Every second day from day −7 to day 7 body weight and food intake were measured.
On day 7, one day after the last dose of antisense, and/or after the last octreotide dose, the animals were anaesthetized with pentobarbital (50 mg/kg i.p.) and non-fasting blood samples collected exactly 5 minutes later from the retrobulbar plexus through heparinized capillary tubes under light ether anesthesia (as on day −7 and 0).
At day −2 and day 7, serum IGF-I measurement was done by radioimmunoassay. Serum IGF-I level is the most widely used measure of growth hormone biological activity in human therapy. It is used to measure the efficacy of growth hormone antagonist treatments like Trovert, which block cells' responsiveness to excess growth hormone, and dopamine agonists and octreotide somatostatin […] drugs that block growth hormone secretion from the pituitary.

[2] = test system: mouse growth hormone receptor mRNA; experiment: Inhibition of mouse growth hormone receptor mRNA levels in b.END cells, quantitative real-time PCR; type: cell-based; conditions: dose-response studies

## acaaagatccatacctgaga (eA*e[5mC]*eA*eA*eA*dG*dA*dT*d[5mC]*d[5mC]*dA*dT*dA*d[5mC]*d[5mC]*eT*eG*eA*eG*eA; antisense) [ISIS 227446]
[1]; 3 mg/kg once every 2 days, day 7
  effect on serum IGF-I: no effect
[1]; 3 mg/kg sc once every 2 days (days 0, 2, 4, 6)
  IGF-I (ng/ml) Day 7: 129.63 ± 33.76 ng/mL
[1]
  % IGF-I reduction: 45%
[1]; listed as ASO
  % IGF-I reduction: 44.51%
[1]; 30 mg/kg sc every second day for one week
  serum IGF-1, % of the control (saline) group: 55%
[1]; 30 mg/kg sc once every 2 days (days 0, 2, 4, 6)
  IGF-I (ng/ml) Day 7: 56.95 ± 10.34 ng/mL
[1]; pre-treatment value of the group given 3 mg/kg sc once every 2 days
  IGF-I (ng/ml) Day −2: 216.23 ± 78.14 ng/mL
[1]; pre-treatment value of the group given 30 mg/kg sc once every 2 days
  IGF-I (ng/ml) Day −2: 181.84 ± 71.32 ng/mL
[2]
  IC50: ~0.025 µM
